Test results as given in patent publication US7910559B2, “Decladinosyl-macrolides with anti-inflammatory activity” (GlaxoSmithKline istrazivacki centar Zagreb d.o.o., priority 2005, dated 2011).

How the values were obtained:
Assay type in all cases: cell-based
[1] = tested on: human TNF-α; assay: Inhibition of TNF-α production by stimulated human peripheral blood leukocytes in vitro (ELISA); conditions: PBL
Procedure: (§1) Substances, used in in vitro experiments, were dissolved in dimethyl sulfoxide (DMSO) (Kemika, Croatia) at concentrations of 50 mM and 10 mM and were further diluted to the final concentrations of […] in 1 mL Dulbecco's modified Eagle medium (DMEM) supplemented with 1% heat inactivated fetal bovine serum (FBS), 1% glutamax, 50 U/ml penicillin, 50 μg/ml streptomycin and 2.5 μg/mL Fungizone (amphotericin B). Media and all media supplements were purchased from Gibco, Australia, except FBS that was from Sigma, USA.
(§2) Peripheral blood leukocytes (PBL) were obtained from venous blood of healthy volunteers by sedimentation on 2% dextran T-500 (Amersham Biosciences, USA) and subsequent centrifugations of leukocyte-rich plasma.
(§3) Peripheral blood leukocytes (PBL), isolated as described above, were seeded in a 48-well plate at a concentration of 3-5×10^6 cell per well in culture medium consisting of RPMI 1640 medium (Institute of Immunology, Croatia) supplemented with 10% heat-inactivated fetal calf serum (FCS, Biowhittaker, USA), 100 U/ml penicillin (Gibco, Australia), 100 μg/ml streptomycin (Gibco, Australia) and 2 mM L-glutamine (Gibco, Australia), and preincubated with the tested compounds for 2 h at 37° C., in an atmosphere of 5% CO2, and 90% humidity. Afterwards, stimuli (Sigma, USA) were added to a final concentration of 2 μg/mL lipopolysaccharide (LPS), 1 μg/mL phorbol 12-myristate 13-acetate (PMA) or 120 μg/mL zymosan. Samples were incubated overnight under conditions described above. At the end of incubation supernatants were transferred to eppendorf tubes and centrifuged for 10 min at 1500 g. Concentrations of human TNF-α, IL-1β, IL-6 and IL-8 were determined in cell supernatants by sandwich ELISA, using capture and detection antibodies (R&D, USA) according to manufacturer's recommendations.
(§4) Inhibition (as percentage) was calculated using the following formula: % inhibition=(1−concentration of cytokines in sample/concentration of cytokines in positive control)×100 where “positive control” refers to stimulated samples not treated with substances.

[2] = tested on: human IL-1β; assay: Inhibition of IL-1β production by stimulated human peripheral blood leukocytes in vitro (ELISA); conditions: PBL
Procedure: as §1, §2, §3, §4

[3] = tested on: human IL-6; assay: Inhibition of IL-6 production by stimulated human peripheral blood leukocytes in vitro (ELISA); conditions: PBL
Procedure: as §1, §2, §3, §4

[4] = tested on: human IL-8; assay: Inhibition of IL-8 production by stimulated human peripheral blood leukocytes in vitro (ELISA); conditions: PBL
Procedure: as §1, §2, §3, §4

[5] = tested on: human peripheral blood mononuclear cells (PBMC); assay: Human peripheral blood mononuclear cell proliferation in vitro ((3H)thymidine incorporation)
Procedure: as §1
Heparinized peripheral blood was obtained from healthy donors, and peripheral blood mononuclear cells (PBMC) were isolated by Histopaque 1077 (Sigma, USA) density centrifugation at 400 g for 30 minutes. Collected PBMC were centrifuged in plasma at 400 g/10 min, resuspended and washed in RPMI 1640 (Institute of Immunology, Croatia) by centrifugation.
Influence of substances at two different concentrations (50 μM and 10 μM) on proliferation of human peripheral blood mononuclear cells (PBMC) was assessed.
Heparinized peripheral blood was obtained from healthy donors, and PBMC were isolated by Histopaque 1077 (Sigma, USA) density centrifugation at 400 g for 30 minutes. 5×10^4 cells/well were cultured for 3 days in the RPMI medium as described above, in the presence (positive control) or absence (negative control) of stimulators [PHA (2.5 μg/mL) (Sigma, USA) or both PMA (10 ng/mL) (Sigma, USA) and ionomycin (500 ng/mL) (Calbiochem, USA)] and tested substances at 37° C. in 5% CO2 and 90% humidity. The cells were pulsed with 1 μCi of (^3H)thymidine (Amersham, USA) per well during the last 18 h of the cultures and were harvested on a 96-well filter (Packard Bioscience, USA) with a multiple cell harvester (Packard, USA). The incorporation of (^3H)thymidine in activated cells was measured by TopCount NXT (Packard, USA).
Inhibition of cell proliferation (as a percentage) was calculated using the following formula: % inhibition=(1−(^3H)thymidine incorporation expressed in counts per minute (cpm) in sample/(3H)thymidine incorporation expressed in cpm in positive control)×100 where “positive control” refers to stimulated samples not treated with substances.

[6] = LPS stimulation, compound 10 μM
[7] = LPS stimulation, compound 50 μM
[8] = PMA stimulation, compound 10 μM
[9] = PMA stimulation, compound 50 μM
[10] = zymosan stimulation, compound 10 μM
[11] = zymosan stimulation, compound 50 μM

3-O-(3-Diethylamino-propionyl)-3-O-decladinosyl-6-O-methyl-9a-aza-9a-homoerythromycin A [Example 2]
Percentage of inhibition of TNF-α production [1, 6]: 37% | Percentage of inhibition of TNF-α production [1, 7]: 80% | Percentage of inhibition of TNF-α production [1, 8]: 34% | Percentage of inhibition of TNF-α production [1, 9]: 55% | Percentage of inhibition of TNF-α production [1, 10]: 13% | Percentage of inhibition of TNF-α production [1, 11]: 60% | Percentage of inhibition of IL-1β production [2, 6]: 83% | Percentage of inhibition of IL-1β production [2, 7]: 91% | Percentage of inhibition of IL-1β production [2, 8]: 60% | Percentage of inhibition of IL-1β production [2, 9]: 78% | Percentage of inhibition of IL-1β production [2, 10]: 96% | Percentage of inhibition of IL-1β production [2, 11]: 94% | Percentage of inhibition of IL-6 production [3, 6]: 40% | Percentage of inhibition of IL-6 production [3, 7]: 94% | Percentage of inhibition of IL-6 production [3, 8]: 17% | Percentage of inhibition of IL-6 production [3, 9]: 68% | Percentage of inhibition of IL-6 production [3, 10]: 45% | Percentage of inhibition of IL-6 production [3, 11]: 91% | Percentage of inhibition of IL-8 production [4, 6]: 40% | Percentage of inhibition of IL-8 production [4, 7]: 96% | Percentage of inhibition of IL-8 production [4, 8]: 0% | Percentage of inhibition of IL-8 production [4, 9]: 92% | Percentage of inhibition of IL-8 production [4, 10]: 32% | Percentage of inhibition of IL-8 production [4, 11]: 87% | Percentage of inhibition of proliferation of stimulated PBMC ([5]; PHA stimulation, compound 10 μM): 80% | Percentage of inhibition of proliferation of stimulated PBMC ([5]; PHA stimulation, compound 50 μM): 98% | Percentage of inhibition of proliferation of stimulated PBMC ([5]; PMA + ionomycin stimulation, compound 10 μM): 0% | Percentage of inhibition of proliferation of stimulated PBMC ([5]; PMA + ionomycin stimulation, compound 50 μM): 99%
